From patent publication US5858738A, “Ermophilane sesquiterpenoids as HIV intergrase inhibitors” (Merck & Co., Inc., priority 1997, dated 1999)

How the values were obtained:
[1] = target: T1, HIV Integrase/donor (HIV) DNA complexes (Human immunodeficiency virus type 1 group M subtype B, UniProt P04585); experiment: Assay for Assembly of HIV Integrase/donor (HIV) DNA Complexes; details: inhibition of assembly or binding to immobilized donor (HIV) DNA; inhibitor 0.1 to 100 μM
T1 construct: strand transfer by HIV integrase
Procedure: Assay for Assembly of HIV Integrase/donor (HIV) DNA Complexes
An assay measuring the binding of HIV Integrase to immobilized donor (HIV) DNA was conducted according to Wolfe, A. L. et al., J. Virol. 70, 1424 (1996), herein incorporated by reference for these purposes. To assay inhibition of such assembly or binding, the reaction was conducted with inhibitor having various concentrations in the range of 0.1 to 100 μM. Results follow.

HIV integrase = target: T2, HIV integrase (Human immunodeficiency virus type 1 group M subtype B, UniProt P04585); experiment: Strand Transfer Assay for HIV Integrase (ligation of processed donor (HIV) DNA to nicked host DNA); assay type: biochemical; details: inhibition of strand transfer; inhibitor 0.1 to 100 μM
T2 construct: strand transfer by HIV integrase
Procedure: Strand Transfer Assay for HIV Integrase
A microtiter assay for ligation of processed donor (HIV) DNA to unspecific, nicked host DNA was conducted according to Hazuda, D. J. et al., Nucl. Acids, Res. 22, 1121 (1994), herein incorporated by reference for these purposes. To assay inhibition of such strand transfer by HIV integrase, the reaction was conducted with inhibition having various concentrations in the range of 0.1 to 100 μM.

HIV-1 integrase = target: T3, HIV-1 integrase (Human immunodeficiency virus type 1 group M subtype B, UniProt P04585); experiment: HIV Integrase Substrate Cleavage and Integration Assay (trimming of the 3' end of HIV long terminal repeat terminus); assay type: biochemical; details: inhibition of HIV integrase substrate cleavage; inhibitor 0.1 to 100 μM
T3 construct: HIV-1 integrase
Procedure: HIV Integrase Substrate Cleavage and Integration Assay
An assay for trimming of the 3' end of HIV long terminal repeat terminus by HIV-1 integrase was conducted according to LaFemina, R. L. et al., J. Virol 10, 5624 (1991), herein incorporated by reference for these purposes. To assay inhibition of HIV integrase substrate cleavage, the reaction was conducted with inhibitor having various concentrations in the range of 0.1 to 100 μM.

With `C=C(C=O)C1CC2(C)C(=CC1=O)C(OC(=O)C(C)=CC(C)CCCC)CCC2C(=O)O` (stereo not drawn) [Compound A] the IC50 [1] was 10 µM, the IC50 (HIV integrase) was 5 to 10 µM and the IC50 (HIV-1 integrase) was 5 to 10 µM.
